# According to ChEMBL document CHEMBL3046410, “Antioxidant activities and transition metal ion chelating studies of some hydroxyl Schiff base derivatives” (Med Chem Res, 2012):
# The source made the active and inactive calls. The rule behind the calls is not given here.
# How the values were obtained:
# [1] = Binding affinity to Cu2+; format: physicochemical
# [2] = Binding affinity to Fe2+
# [3] = system: Radical scavenging activity; experiment: Antioxidant activity assessed as inhibition of DPPH free radical; format: functional
# [4] = Antioxidant activity assessed as inhibition of ABTS free radical; format: functional
# [5] = Antioxidant activity assessed as Cu2+ quenching activity; format: functional
# [6] = Antioxidant activity assessed as Fe2+ quenching activity; format: functional
# [7] = Antioxidant activity assessed as Cu2+ chelating activity by fluorescence spectroscopy; format: functional
# [8] = Antioxidant activity assessed as Fe2+ chelating activity by fluorescence spectroscopy; format: functional
SMILES,Ka [1],Ka [2],IC50 [3],IC50 [4],KSV [5],KSV [6],Activity [7],Activity [8]
Oc1cccc(/N=C/C=C/c2ccccc2)c1,3.51 ×10³ /M,6.25 ×10³ /M,143 µM,3.99 µM,2.8 ×10³ /M,8.91 ×10³ /M,,
Oc1ccc(/N=C/C=C/c2ccccc2)cc1,1.45 ×10⁴ /M,2.47 ×10⁴ /M,399 µM,4.93 µM,2.49 ×10³ /M,6.6 ×10³ /M,,
Oc1cccc(/N=C/c2ccccc2)c1 [3-(BENZYLIDENEAMINO)PHENOL],1.39 ×10⁴ /M,1.47 ×10⁴ /M,466 µM,33.5 µM,5.2 ×10³ /M,7.03 ×10³ /M,,
Oc1ccc(/N=C/c2ccccc2O)cc1,4.43 ×10³ /M,9.67 ×10³ /M,107 µM,4.68 µM,7.21 ×10⁴ /M,1.43 ×10⁵ /M,,
Oc1ccc(/N=C/c2ccccc2)cc1 [4-(BENZYLIDENEAMINO)PHENOL],3.17 ×10³ /M,1.62 ×10⁴ /M,71.5 µM,6.03 µM,3.49 ×10³ /M,4.09 ×10³ /M,,
Oc1cccc(/N=C/c2ccccc2O)c1,3.02 ×10³ /M,3.21 ×10³ /M,407 µM,3.68 µM,1.1 ×10⁵ /M,2.61 ×10⁴ /M,,

# The next compounds have a lower IC50 [3] than those just listed; values first:
Ka [1],Ka [2],IC50 [3],IC50 [4],SMILES,KSV [5],KSV [6],Activity [7],Activity [8]
1.26 ×10⁴ /M,6.48 ×10³ /M,25 µM,5.16 µM,Oc1ccccc1/C=N/c1ccccc1O,6.07 ×10⁴ /M,6.7 ×10⁴ /M,Active,Active
,,65.8 µM,37 µM,Cc1cc(C(C)(C)C)c(O)c(C(C)(C)C)c1 [BUTYLATED HYDROXYTOLUENE],,,,
3.05 ×10³ /M,5.03 ×10³ /M,20.8 µM,4.16 µM,CN(C)c1ccc(/C=N/c2ccc(O)cc2)cc1,2.69 ×10⁴ /M,7.4 ×10³ /M,,
0.85 ×10³ /M,1.81 ×10³ /M,50.2 µM,6.14 µM,Oc1ccc(/N=C/c2ccco2)cc1,1.17 ×10³ /M,0.9 ×10³ /M,,
2.36 ×10⁴ /M,7.3 ×10⁴ /M,10.8 µM,7.07 µM,CN(C)c1ccc(/C=N/c2ccccc2O)cc1,1.53 ×10⁴ /M,5.19 ×10³ /M,,
